Assay results from patent publication US8575309B2, “Delta-opioid receptor selective analgesics” (Biousian Biosystems, Inc., priority 2008, dated 2013).
pEC50, pIC50, pKi: −log10 of the molar value. Where two headings read alike, the source gives them in different places. Non-standard residues stand in square brackets, D forms with d. Residues, ends and D or L forms follow the SMILES beside them. *: point of attachment. βGlc = OC[C@H]1O[C@@H](*)[C@H](O)[C@@H](O)[C@@H]1O; Nle = CCCC[C@H](N)C(=O)O; Nva = CCC[C@H](N)C(=O)O

Experiments:
[1] = biological target: T1, human mu opioid receptor (hMOR) (Homo sapiens, UniProt P35372); assay: Radioligand competition binding, [3H]DAMGO, hMOR CHO cell membranes
T1 construct: expressed in transfected cells; membranes

[2] = biological target: T2, human delta opioid receptor (hDOR) (Homo sapiens, UniProt P41143); assay: Radioligand competition binding, [3H]naltrindole, hDOR CHO cell membranes; details: for rank order of affinity for the delta receptor: peptides at 100 nM and 1 nM vs. 0.2 nM [3H]Naltrindole, 20 ug hDOR CHO cell membranes (FIGS. 1 and 2)
T2 construct: expressed in transfected cells; membranes

[3] = biological target: T3, hDOR (Homo sapiens, UniProt P41143); assay: [35S]GTPγS binding assay, hDOR CHO cell membranes; format: biochemical; details: for Antagonist Properties Imax (%) Delta Mean: cell wraps over r13-r15: No Inhibition; for Description: Delta: functional classification; for Emax: read-out: Agonist Properties EMax (%) Delta Mean
T3 construct: expressed in transfected cells; membranes
Experimental: (§1) GTPγS binding assay to determine if the peptide is an agonist, antagonist, or partial agonist at the DOR. Membranes from the CHO cell lines, expressing either the MOR, DOR or KOR, will be incubated with 12 concentrations of each peptide for 60 min at 30° C. in a final volume of 0.5 mL of assay buffer (50 mM Tris-HCl, 3 mM MgCl2, 0.2 mM EGTA, 100 mM NaCl, pH 7.5) containing 3 μM GDP and 0.08 nM [^35S] GTPγS. Basal binding is determined in the presence of GDP and the absence of opioids, and nonspecific binding is determined by including 10 μM unlabeled […] GTPγS. The incubation is terminated by filtration under vacuum through glass fiber filters, followed by three washes with 3-ml ice-cold 50 mM Tris-HCl, pH 7.5. Samples are allowed to equilibrate overnight and are counted in 2 ml of Ecoscint A scintillation fluid for 2 min in a liquid scintillation counter.
(§2) GTPγS binding assay described in Example 3.

[4] = system: mouse tail flick; assay: Mouse tail flick assay, oral availability of formulations; format: in vivo; details: for antinociceptive activity: 32 mg/kg
[5] = biological target: T4, human kappa opioid receptor (hKOR) (Homo sapiens, UniProt P41145); assay: Radioligand binding, [3H]U69,593, hKOR CHO cell membranes; details: peptide at 10 uM, read-out: Max Inhib at 10 uM (%) Kappa [3H]U69,593 Mean
T4 construct: expressed in transfected cells; membranes

[6] = biological target: T5, hMOR (Homo sapiens, UniProt P35372); assay: [35S]GTPγS binding assay, hMOR CHO cell membranes; format: biochemical; details: for Antagonist Properties Imax (%) Mu Mean: cell wraps over r13-r15: No Inhibition; for Description: Mu: functional classification; for Emax: hMOR CHO cell membranes, @ 10 um, read-out: Agonist Properties EMax (%) Mu Mean
T5 construct: expressed in transfected cells; membranes
Experimental: as §1, §2

T5 sequence (P35372 whole entry): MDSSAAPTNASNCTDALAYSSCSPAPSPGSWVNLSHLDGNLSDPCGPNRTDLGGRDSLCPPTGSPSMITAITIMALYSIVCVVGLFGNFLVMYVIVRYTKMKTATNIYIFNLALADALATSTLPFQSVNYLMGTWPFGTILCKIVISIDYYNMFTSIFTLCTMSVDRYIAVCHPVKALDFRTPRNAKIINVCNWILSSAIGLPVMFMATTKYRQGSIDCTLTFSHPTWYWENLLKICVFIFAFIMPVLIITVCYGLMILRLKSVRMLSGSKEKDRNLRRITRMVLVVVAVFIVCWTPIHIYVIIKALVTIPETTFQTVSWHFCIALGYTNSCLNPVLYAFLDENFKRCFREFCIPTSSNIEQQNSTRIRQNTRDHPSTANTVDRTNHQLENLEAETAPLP
T2 sequence (P41143 whole entry): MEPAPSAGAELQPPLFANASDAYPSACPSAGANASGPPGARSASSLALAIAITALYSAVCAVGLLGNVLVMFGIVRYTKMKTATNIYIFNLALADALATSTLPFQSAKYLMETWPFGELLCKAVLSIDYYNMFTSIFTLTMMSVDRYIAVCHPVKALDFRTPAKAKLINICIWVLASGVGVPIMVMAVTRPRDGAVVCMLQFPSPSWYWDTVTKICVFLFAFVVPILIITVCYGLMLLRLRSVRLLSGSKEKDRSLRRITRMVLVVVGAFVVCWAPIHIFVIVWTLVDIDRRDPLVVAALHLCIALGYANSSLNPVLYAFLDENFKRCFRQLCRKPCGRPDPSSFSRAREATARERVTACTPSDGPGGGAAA
T3 sequence (P41143 whole entry): as above
T1 sequence (P35372 whole entry): as the sequence (P35372 whole entry) above
T4 sequence (P41145 whole entry): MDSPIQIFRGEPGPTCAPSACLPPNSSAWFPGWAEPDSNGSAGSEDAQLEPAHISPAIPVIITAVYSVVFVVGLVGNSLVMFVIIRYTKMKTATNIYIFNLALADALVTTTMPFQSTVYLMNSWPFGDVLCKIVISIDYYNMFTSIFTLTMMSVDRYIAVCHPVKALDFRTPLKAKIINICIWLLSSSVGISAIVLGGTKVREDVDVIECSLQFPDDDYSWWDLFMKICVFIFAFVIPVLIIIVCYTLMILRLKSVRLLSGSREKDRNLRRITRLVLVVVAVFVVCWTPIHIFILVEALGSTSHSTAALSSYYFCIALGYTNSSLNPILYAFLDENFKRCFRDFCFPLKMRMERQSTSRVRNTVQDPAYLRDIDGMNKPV

CCCC[C@H](NC(=O)[C@H](CCC(=O)O)NC(=O)[C@H](Cc1ccccc1)NC(=O)[C@@H](C)NC(=O)[C@@H](N)Cc1ccc(O)cc1)C(=O)N[C@@H](CCCC)C(=O)N[C@H](C(N)=O)[C@@H](C)O[C@@H]1O[C@H](CO)[C@@H](O)[C@H](O)[C@H]1O [Peptide 11008, H2N-YaFE-Nle-Nle-T(beta-D-Glc)-amide] (H-Y[dA]FE[Nle][Nle]T(βGlc)-NH2)
pKi [1]: 5.96
pIC50 [2]: 7.38
pKi [2]: 7.85
rank order of affinity for the delta receptor [2]: [11001≈111003≈11008≈DPDDE]>[11005≈11006≈11007]>[11002≈11004]>Lsz27
lower affinity for delta than DPDPE ([2]; relative to DPDPE): ~3 fold
pEC50 [3]: 7.92
Antagonist Properties Imax (%) Delta Mean [3]: No
Description: Delta [3]: Agonist
Emax ([3]; hDOR CHO cell membranes): 75%
efficacy of oral formulation versus unformulated glycopeptide ([4]; oral formulation, 3.2 mg/kg): just slightly lower efficacy than that produced by 32 mg/kg of unformulated glycopeptide 11008
antinociceptive activity ([4]; oral formulation): 75%
antinociceptive activity ([4]; saline formulation (unformulated)): 30%
inhibition at 10 µM [5]: 2.9%
Antagonist Properties Imax (%) Mu Mean [6]: No
Description: Mu [6]: Very weak agonist
Emax [6]: 27%

H2N-YaFE-Nle-Nle-S(beta-D-Glc)-amide (H-Y[dA]FE[Nle][Nle]S(βGlc)-NH2; SMILES CCCC[C@H](NC(=O)[C@H](CCCC)NC(=O)[C@H](CCC(=O)O)NC(=O)[C@H](Cc1ccccc1)NC(=O)[C@@H](C)NC(=O)[C@@H](N)Cc1ccc(O)cc1)C(=O)N[C@@H](CO[C@@H]1O[C@H](CO)[C@@H](O)[C@H](O)[C@H]1O)C(N)=O) [Peptide 11006]
rank order of affinity for the delta receptor [2]: [11001≈111003≈11008≈DPDDE]>[11005≈11006≈11007]>[11002≈11004]>Lsz27

H2N-YaFHLAT(beta-D-Glc)-amide (H-Y[dA]FHLAT(βGlc)-NH2; SMILES CC(C)C[C@H](NC(=O)[C@H](Cc1c[nH]cn1)NC(=O)[C@H](Cc1ccccc1)NC(=O)[C@@H](C)NC(=O)[C@@H](N)Cc1ccc(O)cc1)C(=O)N[C@@H](C)C(=O)N[C@H](C(N)=O)[C@@H](C)O[C@@H]1O[C@H](CO)[C@@H](O)[C@H](O)[C@H]1O) [Peptide 11004]
rank order of affinity for the delta receptor [2]: [11001≈111003≈11008≈DPDDE]>[11005≈11006≈11007]>[11002≈11004]>Lsz27

H2N-YaFE-Nva-Nva-T(beta-D-Glc)-amide (H-Y[dA]FE[Nva][Nva]T(βGlc)-NH2; SMILES CCC[C@H](NC(=O)[C@H](CCC(=O)O)NC(=O)[C@H](Cc1ccccc1)NC(=O)[C@@H](C)NC(=O)[C@@H](N)Cc1ccc(O)cc1)C(=O)N[C@@H](CCC)C(=O)N[C@H](C(N)=O)[C@@H](C)O[C@@H]1O[C@H](CO)[C@@H](O)[C@H](O)[C@H]1O) [Peptide 11007]
rank order of affinity for the delta receptor [2]: [11001≈111003≈11008≈DPDDE]>[11005≈11006≈11007]>[11002≈11004]>Lsz27

H2N-YmFHLMT(beta-D-Glc)-amide (H-Y[dM]FHLMT(βGlc)-NH2; SMILES CSCC[C@H](NC(=O)[C@H](CC(C)C)NC(=O)[C@H](Cc1c[nH]cn1)NC(=O)[C@H](Cc1ccccc1)NC(=O)[C@@H](CCSC)NC(=O)[C@@H](N)Cc1ccc(O)cc1)C(=O)N[C@H](C(N)=O)[C@@H](C)O[C@@H]1O[C@H](CO)[C@@H](O)[C@H](O)[C@H]1O) [Peptide 11003]
rank order of affinity for the delta receptor [2]: [11001≈111003≈11008≈DPDDE]>[11005≈11006≈11007]>[11002≈11004]>Lsz27

H2N-YaFHLAS(beta-D-Glc)-amide (H-Y[dA]FHLAS(βGlc)-NH2; SMILES CC(C)C[C@H](NC(=O)[C@H](Cc1c[nH]cn1)NC(=O)[C@H](Cc1ccccc1)NC(=O)[C@@H](C)NC(=O)[C@@H](N)Cc1ccc(O)cc1)C(=O)N[C@@H](C)C(=O)N[C@@H](CO[C@@H]1O[C@H](CO)[C@@H](O)[C@H](O)[C@H]1O)C(N)=O) [Peptide 11002]
rank order of affinity for the delta receptor [2]: [11001≈111003≈11008≈DPDDE]>[11005≈11006≈11007]>[11002≈11004]>Lsz27

CCC[C@H](NC(=O)[C@H](CCC)NC(=O)[C@H](CCC(=O)O)NC(=O)[C@H](Cc1ccccc1)NC(=O)[C@@H](C)NC(=O)[C@@H](N)Cc1ccc(O)cc1)C(=O)N[C@@H](CO[C@@H]1O[C@H](CO)[C@@H](O)[C@H](O)[C@H]1O)C(N)=O [Peptide 11005, H2N-YaFE-Nva-Nva-S(beta-D-Glc)-amide] (H-Y[dA]FE[Nva][Nva]S(βGlc)-NH2)
pKi [1]: 6.15
pIC50 [2]: 7.21
pKi [2]: 7.70
rank order of affinity for the delta receptor [2]: [11001≈111003≈11008≈DPDDE]>[11005≈11006≈11007]>[11002≈11004]>Lsz27
inhibition at 10 µM [5]: 5.3%

H2N-YmFHLMS(beta-D-Glc)-amide (H-Y[dM]FHLMS(βGlc)-NH2; SMILES CSCC[C@H](NC(=O)[C@H](CC(C)C)NC(=O)[C@H](Cc1c[nH]cn1)NC(=O)[C@H](Cc1ccccc1)NC(=O)[C@@H](CCSC)NC(=O)[C@@H](N)Cc1ccc(O)cc1)C(=O)N[C@@H](CO[C@@H]1O[C@H](CO)[C@@H](O)[C@H](O)[C@H]1O)C(N)=O) [Peptide 11001]
rank order of affinity for the delta receptor [2]: [11001≈111003≈11008≈DPDDE]>[11005≈11006≈11007]>[11002≈11004]>Lsz27

CCCC[C@H](NC(=O)[C@H](CCC(=O)O)NC(=O)[C@H](Cc1ccccc1)NC(=O)[C@@H](C)NC(=O)[C@@H](N)Cc1ccc(O)cc1)C(=O)N[C@@H](CCCC)C(=O)N[C@H](C(N)=O)[C@@H](C)O [Peptide 11009, H2N-YaFE-Nle-Nle-T-amide] (H-Y[dA]FE[Nle][Nle]T-NH2)
Antagonist Properties Imax (%) Delta Mean [3]: No
Description: Delta [3]: Agonist
EC50 ([3]; hDOR CHO cell membranes, read-out: Agonist Properties EC50 (nM) Delta Mean): 12 nM
Emax ([3]; hDOR CHO cell membranes): 67%
Antagonist Properties Imax (%) Mu Mean [6]: No
Description: Mu [6]: Very weak agonist
Emax [6]: 42%
